Test results published in PMC5823406, “Vehicle development, pharmacokinetics and toxicity of the anti-invasive agent 4-fluoro-3’,4’,5’-trimethoxychalcone in rodents” (PLoS ONE, 2018).
Where “and” joins values, the source holds several entries; their conditions need not be identical. Equal values may be shown once. Read-outs that look alike come from different tables or passages of the source.

Experiments:
Blood partitioning = assay type: in vitro ADME; settings: rat, Sprague-Dawley, authors call the ratio not accurate
[1] = High-dose PK, single PO 300 mg/kg via oral gavage; assay type: in vivo; settings: single 300 mg/kg oral gavage; for Individual whole blood concentration: animals 4-1 to 4-3
Protocol: On the morning of day 7, the water group received a single PO administration of 300 mg/kg C16 (10 mL/kg) for high-dose PK evaluation, using a 30 mg/mL solution of C16 in 10% Solutol HS-15 / 90% PEG 600 (prepared as described above). To that extent, blood was collected via the tail vein at the 30 and 60 min time point, and via cardiac exsanguination after 180 min (protocol as for other cohorts). Samples for hematological and biochemical analysis were also prepared. Afterward, animals were sacrificed by cervical dislocation.
Blood samples (25 μL) were collected via the tail vein or cardiac puncture (last time point). Blood was pipetted into a tube with 25 μL heparinized water (1 μL of sodium heparin (1000 units/mL) + 24 μL water) within 30 seconds of collection. The sample was pipetted up and down five times, immediately frozen on dry ice, and stored at -60°C to -80°C until analysis.
E.C. Whole blood C16 levels […]
BLOQ: below the limit of quantitation (0.5 ng/mL). Samples that were below the limit of quantification were not used in the calculation of
Table BB. […]

ICR mice = experiment: Single-dose IP MTD study; assay type: in vivo; settings: for Necropsy: gross findings: 24 h post dosing; for Weigt decrease (%): over 24 h
Protocol: Male ICR mice (20–26 g), were obtained from BioLASCO Taiwan. Animals were kept in conventional cages with wood chip bedding. Space allocation for 3–5 animals was 30 x 19 x 13 cm. All animals were healthy at the start of the trial and maintained in a well-controlled temperature (20–24°C) and humidity (30%-70%) environment with 12 h light/dark cycles. Free access to a standard lab diet [MFG (Oriental Yeast Co., Ltd., Japan)] and autoclaved tap water were granted.
A single PO and IP dose progression test was conducted in which animals were dosed at a minimum of 72- or 24-h intervals, respectively. C16 (vehicle: 10% Solutol HS-15 / 90% PEG 600) was administered by oral gavage at 10 mL/kg to randomly assigned groups of 2 male and 2 female mice, or by IP injection at 5 mL/kg to randomly assigned groups of 5 male mice. Animals received an initial dose of 10 mg/kg. If 50% of the animals survived for 72 h (PO) or 30 min (IP), the dose for the next cohort was increased. If one or more animals died, the dose for the next cohort was decreased. The next dose level was determined by the decision scheme in Fig 2.
Body weights were recorded before dosing and at the 72- (PO) or 24-h (IP) time point. Gross necropsy was performed in all animals without tissue collection.
C16 was administered IP at an initial dose of 10 mg/kg to a group of 5 ICR derived male mice weighing 22±2 g. The animals were then observed for presence of acute toxic symptoms and autonomic effects during the first 30 min and after 1 h, 2 h, 6 h and 24 h (Table S-Table U). The next dose level was determined based on whether more than 50% animals died within 30 min after dosing. Gross necropsy was performed in all animals without tissue collection .
Table S. Body weights, evolution over 24 h, IP MTD study.
Compound Dose Animal Body weight (g)
Table T. Food consumption over 24 h, IP MTD study.
Compound Dose Animal Food consumption (g)

[2] = Solubility in vehicles, laser nephelometry; assay type: physicochemical
Protocol: The solubility of C16 was tested at 10 and 30 mg/mL for the indicated vehicles using laser nephelometry in 96-well plates (BMG LabTech NEPHELOstar microplate reader, BMG LabTech, USA). Solutions were prepared using solubilizing techniques including sonication, heating up to 37 °C and vortex. Solubility data was categorized as soluble (result ≤ +15 of blank), slightly soluble (result between +15 and +25 of blank) or not soluble (result > +25 of blank).
C16 has low aqueous solubility, which limits the choice of preclinical formulations for in vivo studies. In this work, thirteen vehicles were evaluated for their applicability in single-dose studies (Table 1). For commonly used systems (entries a-e) visual determination of solubility was conducted, while for the more complex systems solubility was assessed by laser nephelometry.

CYP 3A4 = CYP 3A4 (Homo sapiens, UniProt P08684); experiment: CYP inhibition 3A4 (BFC substrate); assay type: in vitro ADME; settings: 10 μM
From the text: Table 3 In vitro physicochemical, stability and metabolism data. | column: Value

Sequence of CYP 3A4 (P08684 whole entry): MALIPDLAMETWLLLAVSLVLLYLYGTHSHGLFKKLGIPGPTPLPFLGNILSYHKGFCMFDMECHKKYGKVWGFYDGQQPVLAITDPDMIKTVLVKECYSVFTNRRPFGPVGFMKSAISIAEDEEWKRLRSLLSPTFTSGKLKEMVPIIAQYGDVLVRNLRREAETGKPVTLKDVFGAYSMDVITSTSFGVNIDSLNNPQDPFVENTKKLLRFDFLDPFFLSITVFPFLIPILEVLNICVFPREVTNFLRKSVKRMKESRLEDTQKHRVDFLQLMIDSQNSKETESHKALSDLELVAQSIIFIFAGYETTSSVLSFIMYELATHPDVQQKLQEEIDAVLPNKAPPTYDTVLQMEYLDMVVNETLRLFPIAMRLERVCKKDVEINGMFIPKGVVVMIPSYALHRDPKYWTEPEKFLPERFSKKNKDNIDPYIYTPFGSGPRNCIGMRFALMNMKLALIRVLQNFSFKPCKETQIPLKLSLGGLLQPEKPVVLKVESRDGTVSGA

Question: For `COc1cc(C(=O)/C=C/c2ccc(F)cc2)cc(OC)c1OC` [C16, 4-fluoro-3’,4’,5’-trimethoxychalcone], which blood plasma ratio at 1 μM (Blood partitioning) is on record?
Answer: 9.2

Question: And the concentration at 0.5 h ([1]; male, CD-1, mouse, whole blood, po, 0.5 h, Average±SD)?
Answer: 32.3 ± 24.2 ng/mL

Question: And the concentration at 1 h ([1]; male, CD-1, mouse, whole blood, po, 1 h, Average±SD)?
Answer: 28.3 ± 12.1 ng/mL

Question: What about the concentration at 3 h ([1]; male, CD-1, mouse, whole blood, po, 3 h, Average±SD, read-out: Whole blood concentration) of the same compound?
Answer: 15.1 ± 2.9 ng/mL

Question: And the “Individual whole blood concentration” value ([1]; mouse, 0.5 h)?
Answer: 19.3 ng/mL and 60.2 ng/mL and 17.5 ng/mL

Question: And the “Individual whole blood concentration” value ([1]; mouse, 1 h)?
Answer: 28.5 ng/mL and 40.3 ng/mL and 16.2 ng/mL

Question: And the “Individual whole blood concentration” value ([1]; mouse, 3 h)?
Answer: 13.9 ng/mL and 13.1 ng/mL

Question: What about the concentration at 3 h ([1]; mouse, whole blood, po, 3 h, animals 4-1 to 4-3, read-out: Individual whole blood concentration) of the same compound?
Answer: 18.4 ng/mL

Question: What about the Deaths (ICR mice; IP 10 mg/kg) of the same compound?
Answer: 0/5

Question: What about the “Necropsy: gross findings” value (ICR mice; IP 10 mg/kg) of the same compound?
Answer: none

Question: What about the “Autonomic: Hunch back” value (ICR mice; IP 10 mg/kg, first 30 min) of the same compound?
Answer: 3/5

Question: And the “Autonomic: Low body temperature” value (ICR mice; IP 10 mg/kg, first 30 min)?
Answer: 0/5

Question: What about the “Behavioral: Irritability: vocalization” value (ICR mice; IP 10 mg/kg, first 30 min) of the same compound?
Answer: 0/5

Question: What about the “Behavioral: Pinna” value (ICR mice; IP 10 mg/kg, first 30 min) of the same compound?
Answer: 0/5

Question: And the “Neurologic: Low limb post” value (ICR mice; IP 10 mg/kg, first 30 min)?
Answer: 0/5

Question: And the “Neurologic: Tremor: twitches” value (ICR mice; IP 10 mg/kg, first 30 min)?
Answer: 2/5

Question: What about the “Weigt decrease (%)” value (ICR mice; IP 10 mg/kg) of the same compound?
Answer: 2.4%

Question: What about the Deaths (ICR mice; IP 30 mg/kg) of the same compound?
Answer: 0/5

Question: What about the “Necropsy: gross findings” value (ICR mice; IP 30 mg/kg) of the same compound?
Answer: none

Question: What about the “Autonomic: Hunch back” value (ICR mice; IP 30 mg/kg, first 30 min) of the same compound?
Answer: 5/5

Question: What about the “Autonomic: Low body temperature” value (ICR mice; IP 30 mg/kg, first 30 min) of the same compound?
Answer: 0/5

Question: And the “Neurologic: Tremor: twitches” value (ICR mice; IP 30 mg/kg, first 30 min)?
Answer: 2/5

Question: What about the “Weigt decrease (%)” value (ICR mice; IP 30 mg/kg) of the same compound?
Answer: 4.8%

Question: And the Deaths (ICR mice; IP 50 mg/kg)?
Answer: 0/5

Question: What about the “Necropsy: gross findings” value (ICR mice; IP 50 mg/kg) of the same compound?
Answer: none

Question: And the “Autonomic: Hunch back” value (ICR mice; IP 50 mg/kg, first 30 min)?
Answer: 5/5

Question: What about the “Neurologic: Tremor: twitches” value (ICR mice; IP 50 mg/kg, first 30 min) of the same compound?
Answer: 3/5

Question: And the “Weigt decrease (%)” value (ICR mice; IP 50 mg/kg)?
Answer: 8.7%

Question: And the “tolerated dose, single-dose IP administration” value (ICR mice; male, ICR, mouse, in vivo, ip, 24 h)?
Answer: up to 50 mg/kg

Question: What about the “Solubility of C16 in vehicle: Result” value ([2]; 10% Cremophor EL / 10% EtOH, 10 mg/mL) of the same compound?
Answer: Insoluble ^b

Question: What about the “Solubility of C16 in vehicle: Result” value ([2]; 10% Cremophor EL / 10% EtOH, 30 mg/mL) of the same compound?
Answer: Insoluble ^b

Question: And the “Solubility of C16 in vehicle: Result” value ([2]; 10% DMA / 10% EtOH / 20% PG, 10 mg/mL)?
Answer: Insoluble ^b

Question: And the “Solubility of C16 in vehicle: Result” value ([2]; 10% DMA / 10% EtOH / 20% PG, 30 mg/mL)?
Answer: Insoluble ^b

Question: And the “Solubility of C16 in vehicle: Result” value ([2]; 10% Dimethylacetamide (DMA) / 90% PEG 600, 10 mg/mL)?
Answer: Soluble ^b

Question: What about the “Solubility of C16 in vehicle: Result” value ([2]; 10% Dimethylacetamide (DMA) / 90% PEG 600, 30 mg/mL) of the same compound?
Answer: Soluble ^b

Question: And the “Solubility of C16 in vehicle: Result” value ([2]; 10% Solutol HS-15 / 90% PEG 600, 10 mg/mL)?
Answer: Soluble ^b

Question: And the “Solubility of C16 in vehicle: Result” value ([2]; 10% Solutol HS-15 / 90% PEG 600, 30 mg/mL)?
Answer: Soluble ^b

Question: And the “Solubility of C16 in vehicle: Result” value ([2]; 10%DMA / 20%PG / 40% PEG 400, 10 mg/mL)?
Answer: Insoluble ^b

Question: What about the “Solubility of C16 in vehicle: Result” value ([2]; 10%DMA / 20%PG / 40% PEG 400, 30 mg/mL) of the same compound?
Answer: Insoluble ^b

Question: What about the “Solubility of C16 in vehicle: Result” value ([2]; 20% PEG 400 / 10% Cremophor EL, 10 mg/mL) of the same compound?
Answer: Insoluble ^b

Question: What about the “Solubility of C16 in vehicle: Result” value ([2]; 20% PEG 400 / 10% Cremophor EL, 30 mg/mL) of the same compound?
Answer: Insoluble ^b

Question: What about the “Solubility of C16 in vehicle: Result” value ([2]; 40% PEG 400 / 10% EtOH, 10 mg/mL) of the same compound?
Answer: Insoluble ^b

Question: What about the “Solubility of C16 in vehicle: Result” value ([2]; 40% PEG 400 / 10% EtOH, 30 mg/mL) of the same compound?
Answer: Insoluble ^b

Question: And the “Solubility of C16 in vehicle: Result” value ([2]; 100% Corn oil, 10 mg/mL)?
Answer: Insoluble ^b

Question: What about the “Solubility of C16 in vehicle: Result” value ([2]; 100% Corn oil, 30 mg/mL) of the same compound?
Answer: Insoluble ^b

Question: What about the “CYP inhibition 3A4 (BFC substrate)” value (CYP 3A4) of the same compound?
Answer: 27 % inhibition of control
